What follows are compounds tested against T1, human bradykinin B2 receptor (hB2R) (Homo sapiens, UniProt P30411) (assay: human bradykinin B2 receptor calcium mobilization (hB2R-CaM) assay). Conditions: antagonism of bradykinin (EC80) induced calcium mobilization, B2 Bradykinin Receptor Stable Cell Line HTS041C, 25 min pre-incubation; read-out: IC50-value towards human bradykinin B2 receptor (hB2R).
T1 sequence (P30411 1-391): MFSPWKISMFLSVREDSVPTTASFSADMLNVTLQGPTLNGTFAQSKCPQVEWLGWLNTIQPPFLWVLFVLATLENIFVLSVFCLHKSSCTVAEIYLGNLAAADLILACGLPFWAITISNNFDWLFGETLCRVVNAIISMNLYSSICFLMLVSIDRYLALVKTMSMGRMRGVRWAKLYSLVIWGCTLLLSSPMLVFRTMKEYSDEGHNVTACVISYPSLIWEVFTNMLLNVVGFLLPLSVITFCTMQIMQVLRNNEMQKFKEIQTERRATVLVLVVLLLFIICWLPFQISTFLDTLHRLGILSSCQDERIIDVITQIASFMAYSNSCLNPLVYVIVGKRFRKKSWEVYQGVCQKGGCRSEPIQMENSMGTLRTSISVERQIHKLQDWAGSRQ
Format: cell-based
Description: The following cell-based human bradykinin B2 receptor calcium mobilization (hB2R-CaM) assay was used to determine the antagonistic activity of compounds selected from the example compounds Nos. 1 to 107 towards human bradykinin B2 receptor (hB2R). The assay is defined herein as a standard in vitro B2 receptor activity assay, which can be used to determine IC50 values of the compounds according to the present invention, e. g. the compounds shown in Examples 1-13.
The antagonistic activity of compounds according to the present invention was investigated with the hB2R-CaM assay using the B2 Bradykinin Receptor Stable Cell Line HTS041C (Eurofins, St. Charles MO) and the FLIPR Calcium 6 Assay Kit (Molecular Devices, Wokingham, UK) according to the instructions of the providers. CaM assay measurements were performed with a Flexstation 3 System (Molecular Devices) which allows the precise addition of compounds (B2R antagonists) and bradykinin (B2R agonist) to the cells and adjacent continuous recording of the time-dependent CaM assay signals.
HTS041C cells were cultured in high glucose DMEM cell culture medium (Lonza) supplemented with 10% heat-inactivated FBS (PAN Biotech), 10 mM HEPES, Penicillin/Streptomycin (200 U/mL, 200 μg/mL), lx non-essential amino acids (Lonza), and 250 μg/mL G418 (Invivogen) in cell incubator at 37° C. in a 5% CO2 atmosphere. One day before the CaM assay experiments cells were seeded in 200 μL DMEM cell culture medium with reduced FBS (5%) and without G418 on clear bottom black 96 well plates (ThermoFisher #165305). Cell starvation was carried out by incubation (37° C., 5% CO2) of 70.000 cells/well for 24 h to 28 h. Immediately prior calcium dye-loading the medium was carefully aspirated and cells were washed with Hank's balanced salt solution (HBSS, Gibco) containing Ca^2+, Mg^2+ and 20 mM HEPES, adjusted to pH 7.4 (HBSS+).
For calcium dye-loading one FLIPR 6 assay aliquot was dissolved in 20 mL HBSS+. 150 μL of the dye loading solution was added to cell plate and incubated for 120 min at 37° C. and 5% CO2. After dye loading the cell plate was immediately transferred to the pre-warmed (37° C.) Flexstation 3 System for CaM assaying.
Freshly prepared compound (B2 receptor antagonists) dilution series (8 pt, n=2) and bradykinin (B2 receptor agonist) solution in non-binding plates (Costar) were transferred to the Flexstation System (source plate) shortly before starting the experiment. Bradykinin was added in EC80 concentration determined in n>3 preliminary experiments with 8 pt concentration response curves (n=8)). CaM assay was executed by Flexstation 3 System starting with recording of calcium-sensitive dye fluorescence in bottom-read Flex modus with ex/em=485 nm/525 nm, cut off(em)=515 nm After 20 s, 50 μL of 4-fold concentrated compound dilutions were added to the cells resulting in a final DMSO (Sigma) concentration of 0.1% in the cell plate. CaM signals were monitored for 80 s after additions for detection of potential agonistic activities. Prior to bradykinin stimulus compound- and vehicle-treated cells were incubated for 25 min at 37° C. within the Flexstation System. Then 50 μL of a 5-fold concentrated bradykinin solution (HBSS+, 0.1% DMSO) was added to trigger CaM signals (Read out: Max-Min values) which were measured for 80 s post bradykinin stimulus.
IC50 determinations were performed by 4 parameter logistic model curve fitting of the 8 pt (n=2) compound concentration response curves using XLFIT (IDBS) software.

Row | Compound | IC50 [µM]
1 | Cc1cc(-n2cc(F)cn2)c2cccc(OCc3c(Cl)cc(F)cc3[C@H](C)N3CC(=O)N(C(C)C)C3=O)c2n1 [compound 14] | 0.011 to 0.1
2 | Cc1cc(-n2cc(F)cn2)c2cccc(OCc3c(Cl)cc(F)cc3[C@H](C)N3CC(=O)N(CCO)C3=O)c2n1 [compound 15] | ≤ 0.01
3 | Cc1cc(-n2cc(F)cn2)c2cccc(OCc3c(Cl)cc(F)cc3[C@H](C)N3CC(=O)NC3=O)c2n1 [compound 19] | 0.011 to 0.1
4 | CNC(=O)CN1C(=O)CN([C@@H](C)c2cc(F)cc(Cl)c2COc2cccc3c(-n4cc(F)cn4)cc(C)nc23)C1=O [compound 20] | 0.011 to 0.1
5 | Cc1cc(-n2cc(F)cn2)c2cccc(OCc3c(Cl)cc(F)cc3[C@H](C)N3CC(=O)N(CC(=O)N(C)C)C3=O)c2n1 [compound 21] | 0.011 to 0.1
6 | Cc1cc(-n2cc(F)cn2)c2cccc(OCc3c(Cl)cc(F)cc3[C@H](C)N3CC(=O)N(CC(=O)O)C3=O)c2n1 [compound 22] | 0.011 to 0.1
7 | Cc1cc(-n2cc(F)cn2)c2cccc(OCc3c(Cl)cc(F)cc3[C@H](C)N3CC(=O)N(CCN)C3=O)c2n1 [compound 23] | 0.011 to 0.1
8 | Cc1cc(-n2cc(F)cn2)c2cccc(OCc3c(Cl)cc(F)cc3[C@H](C)N3CC(=O)N(CCN(C)C)C3=O)c2n1 [compound 24] | 0.011 to 0.1
9 | Cc1cc(-c2ncnn2C)c2cccc(OCc3c(Cl)cc(F)cc3[C@H](C)N3CCCCC3=O)c2n1 [compound 26] | ≤ 0.01
10 | Cc1cc(-c2ncnn2C)c2cccc(OCc3c(Cl)cc(F)cc3[C@H](C)N3CCCC3=O)c2n1 [compound 27] | ≤ 0.01
11 | Cc1cc(-c2ncnn2C)c2cccc(OCc3c(Cl)cc(F)cc3[C@H](C)N3CCOCC3=O)c2n1 [compound 34] | ≤ 0.01
12 | Cc1cc(-c2ncnn2C)c2cccc(OCc3c(Cl)cc(F)cc3[C@H](C)N3C[C@@H](C)OCC3=O)c2n1 [compound 40] | ≤ 0.01
13 | Cc1cc(-c2ncnn2C)c2cccc(OCc3c(Cl)cc(F)cc3[C@H](C)N3C[C@H](C)OCC3=O)c2n1 [compound 41] | ≤ 0.01
14 | Cc1cc(-c2ncnn2C)c2cccc(OCc3c(Cl)cc(F)cc3[C@H](C)N3CC[C@@H](O)C3=O)c2n1 [compound 43] | 0.011 to 0.1
15 | Cc1cc(-c2ncnn2C)c2cccc(OCc3c(Cl)cc(F)cc3[C@H](C)N3CC[C@H](Cl)C3=O)c2n1 [compound 44] | ≤ 0.01
16 | Cc1cc(-n2cc(F)cn2)c2cccc(OCc3c(Cl)cc(F)cc3[C@H](C)N3CC(=O)N(C)CC3=O)c2n1 [compound 46] | ≤ 0.01
17 | Cc1cc(-c2ncnn2C)c2cccc(OCc3c(Cl)cc(F)cc3[C@H](C)N3CC(=O)N(C)CC3=O)c2n1 [compound 47] | 0.011 to 0.1
18 | Cc1cc(-c2ncnn2C)c2cccc(OCc3c(Cl)cc(F)cc3[C@H](C)N3CC(C)CC3=O)c2n1 (some centres unmarked) [compound 63] | ≤ 0.01
19 | Cc1cc(-c2ncnn2C)c2cccc(OCc3c(Cl)cc(F)cc3[C@H](C)N3CCC(C)(C)C3=O)c2n1 [compound 65] | 0.011 to 0.1
20 | CCC1CCC(=O)N([C@@H](C)c2cc(F)cc(Cl)c2COc2cccc3c(-n4cc(F)cn4)cc(C)nc23)C1 (some centres unmarked) [compound 66] | 0.011 to 0.1
21 | CCC1CCC(=O)N([C@@H](C)c2cc(F)cc(Cl)c2COc2cccc3c(-c4ncnn4C)cc(C)nc23)C1 (some centres unmarked) [compound 67] | ≤ 0.01
22 | Cc1cc(-c2ncnn2C)c2cccc(OCc3c(Cl)cc(F)cc3[C@H](C)N3C[C@H](C)NC(=O)C3=O)c2n1 [compound 68] | ≤ 0.01
23 | Cc1cc(-c2ncnn2C)c2cccc(OCc3c(Cl)cc(F)cc3[C@H](C)N3CC[C@H](N)C3=O)c2n1 [compound 69] | 0.011 to 0.1
24 | Cc1cc(-c2ncnn2C)c2cccc(OCc3c(Cl)cc(F)cc3[C@H](C)N3C[C@@H](O)CC3=O)c2n1 [compound 73] | ≤ 0.01
25 | Cc1cc(-c2ncnn2C)c2cccc(OCc3c(Cl)cc(F)cc3[C@H](C)N3CC(=O)N(C)[C@@H](C)C3=O)c2n1 [compound 74] | 0.011 to 0.1
26 | Cc1cc(-c2ncnn2C)c2cccc(OCc3c(Cl)cc(F)cc3[C@H](C)N3CC(=O)N[C@H](C)C3=O)c2n1 [compound 75] | 0.011 to 0.1
27 | Cc1cc(-n2cc(F)cn2)c2cccc(OCc3c(Cl)cc(F)cc3[C@H](C)N3CCN[C@H](C)C3=O)c2n1 [compound 77] | 0.011 to 0.1
28 | Cc1cc(-n2cc(F)cn2)c2cccc(OCc3c(Cl)cc(F)cc3[C@H](C)N3CCN(C(=O)OC(C)(C)C)[C@H](C)C3=O)c2n1 [compound 79] | 0.101 to 0.5
29 | Cc1cc(-n2cc(F)cn2)c2cccc(OCc3c(Cl)cc(F)cc3[C@H](C)N3CCN(C(=O)OC(C)(C)C)[C@@H](C)C3=O)c2n1 [compound 80] | 0.101 to 0.5

Now from value to compound:

Row | IC50 [µM] | Compound
30 | 0.011 to 0.1 | Cc1cc(-n2cc(F)cn2)c2cccc(OCc3c(Cl)cc(F)cc3[C@H](C)N3CCCC3=O)c2n1 [compound 13]
31 | 0.011 to 0.1 | Cc1cc(-n2cc(F)cn2)c2cccc(OCc3c(Cl)cc(F)cc3[C@H](C)N3CCCCC3=O)c2n1 [compound 16]
32 | 0.011 to 0.1 | Cc1cc(-n2cc(F)cn2)c2cccc(OCc3c(Cl)cc(F)cc3[C@H](C)N3CC(=O)N(C4CC4)C3=O)c2n1 [compound 17]
33 | 0.011 to 0.1 | Cc1cc(-n2cc(F)cn2)c2cccc(OCc3c(Cl)cc(F)cc3[C@H](C)N3CCOCC3=O)c2n1 [compound 18]
34 | 0.011 to 0.1 | Cc1cc(-n2cc(F)cn2)c2cccc(OCc3c(Cl)cc(F)cc3[C@H](C)N3CC(=O)NCC3=O)c2n1 [compound 25]
35 | 0.101 to 0.5 | Cc1cc(-n2cc(F)cn2)c2cccc(OCc3c(Cl)cc(F)cc3[C@H](C)N3CC[C@H](O)C3=O)c2n1 [compound 28]
36 | ≤ 0.01 | Cc1cc(-n2cc(F)cn2)c2cccc(OCc3c(Cl)cc(F)cc3[C@H](C)N3CC[C@H](Cl)C3=O)c2n1 [compound 37]
37 | 0.011 to 0.1 | Cc1cc(-n2cc(F)cn2)c2cccc(OCc3c(Cl)cc(F)cc3[C@H](C)N3C[C@H](C)OCC3=O)c2n1 [compound 38]
38 | 0.011 to 0.1 | Cc1cc(-n2cc(F)cn2)c2cccc(OCc3c(Cl)cc(F)cc3[C@H](C)N3C[C@@H](C)OCC3=O)c2n1 [compound 39]
39 | 0.011 to 0.1 | Cc1cc(-n2cc(F)cn2)c2cccc(OCc3c(Cl)cc(F)cc3[C@H](C)N3CC[C@@H](O)C3=O)c2n1 [compound 42]
40 | ≤ 0.01 | Cc1cc(-n2cc(F)cn2)c2cccc(OCc3c(Cl)cc(F)cc3[C@H](C)N3C[C@@H](O)CCC3=O)c2n1 [compound 45]
41 | ≤ 0.01 | Cc1cc(-n2cc(F)cn2)c2cccc(OCc3c(Cl)cc(F)cc3[C@H](C)N3CCNC(=O)C3=O)c2n1 [compound 50]
42 | 0.011 to 0.1 | Cc1cc(-n2cc(F)cn2)c2cccc(OCc3c(Cl)cc(F)cc3[C@H](C)N3CCNCC3=O)c2n1 [compound 57]
43 | 0.011 to 0.1 | Cc1cc(-n2cc(F)cn2)c2cccc(OCc3c(Cl)cc(F)cc3[C@H](C)N3CC(C)CC3=O)c2n1 (some centres unmarked) [compound 62]
44 | 0.011 to 0.1 | Cc1cc(-n2cc(F)cn2)c2cccc(OCc3c(Cl)cc(F)cc3[C@H](C)N3CCC(C)(C)C3=O)c2n1 [compound 64]
45 | ≤ 0.01 | Cc1cc(-n2cc(F)cn2)c2cccc(OCc3c(Cl)cc(F)cc3[C@H](C)N3C[C@@H](O)CC3=O)c2n1 [compound 72]
46 | ≤ 0.01 | Cc1cc(-n2cc(F)cn2)c2cccc(OCc3c(Cl)cc(F)cc3[C@H](C)N3CCN(C(C)C)CC3=O)c2n1 [compound 76]
47 | 0.011 to 0.1 | CC(=O)N1CCN([C@@H](C)c2cc(F)cc(Cl)c2COc2cccc3c(-n4cc(F)cn4)cc(C)nc23)C(=O)C1 [compound 78]

— US12312330B2, “1-((S)-1-(3-chloro-5-fluoro-2-((4-(1h-pyrazol-1-yl)-2-methylquinolin-8-yloxy)methyl)phenyl)ethyl)-imidazolidine-2,4-dione derivatives and related compounds as bradykinin (BK) B2 receptor antagonist for treating skin diseases” (Pharvaris GmbH, priority 2019, dated 2025)
